Measured values as given in ChEMBL document CHEMBL1157646, “Melanogenesis inhibitors from the desert plant Anastatica hierochuntica in B16 melanoma cells” (Bioorg Med Chem, 2010).
Active and inactive are the calls of the source. The rule behind the calls is not given here.

Assays:
[1] = Toxicity in mouse B16-4A5 cells assessed as inhibition of cell proliferation at 30 uM in presence of 1 mM theophylline after 72 hrs by WST8 dye reduction assay; format: cell-based
cells [2] = settings: Mus musculus, B16-4A5, 72 h, read-out: INH
Description: Inhibition of theophylline-stimulated melanogenesis in mouse B16-4A5 cells at 30 uM after 72 hrs

cells [3] = settings: Mus musculus, B16-4A5, 72 h, read-out: INH; remark: listed apart in the source
Description: Inhibition of theophylline-stimulated melanogenesis in mouse B16-4A5 cells at 10 uM after 72 hrs

cells [4] = settings: Mus musculus, B16-4A5, 72 h, read-out: INH; remark: listed apart in the source
Description: Inhibition of theophylline-stimulated melanogenesis in mouse B16-4A5 cells at 3 uM after 72 hrs

cells [5] = settings: Mus musculus, B16-4A5, 72 h, read-out: INH; remark: listed apart in the source
Description: Inhibition of theophylline-stimulated melanogenesis in mouse B16-4A5 cells at 1 uM after 72 hrs

[6] = Toxicity in mouse B16-4A5 cells assessed as inhibition of cell proliferation at 1 uM in presence of 1 mM theophylline after 72 hrs by WST8 dye reduction assay; format: cell-based
[7] = Toxicity in mouse B16-4A5 cells assessed as inhibition of cell proliferation at 3 uM in presence of 1 mM theophylline after 72 hrs by WST8 dye reduction assay; format: cell-based
[8] = Toxicity in mouse B16-4A5 cells assessed as inhibition of cell proliferation at 10 uM in presence of 1 mM theophylline after 72 hrs by WST8 dye reduction assay; format: cell-based
[9] = molecular target: T1, Tyrosinase (Agaricus bisporus) (UniProt O42713); experiment: Inhibition of mushroom tyrosinase assessed as inhibition of melanin production from dopachrome by autoxidation at 100 uM
T1 sequence (whole entry): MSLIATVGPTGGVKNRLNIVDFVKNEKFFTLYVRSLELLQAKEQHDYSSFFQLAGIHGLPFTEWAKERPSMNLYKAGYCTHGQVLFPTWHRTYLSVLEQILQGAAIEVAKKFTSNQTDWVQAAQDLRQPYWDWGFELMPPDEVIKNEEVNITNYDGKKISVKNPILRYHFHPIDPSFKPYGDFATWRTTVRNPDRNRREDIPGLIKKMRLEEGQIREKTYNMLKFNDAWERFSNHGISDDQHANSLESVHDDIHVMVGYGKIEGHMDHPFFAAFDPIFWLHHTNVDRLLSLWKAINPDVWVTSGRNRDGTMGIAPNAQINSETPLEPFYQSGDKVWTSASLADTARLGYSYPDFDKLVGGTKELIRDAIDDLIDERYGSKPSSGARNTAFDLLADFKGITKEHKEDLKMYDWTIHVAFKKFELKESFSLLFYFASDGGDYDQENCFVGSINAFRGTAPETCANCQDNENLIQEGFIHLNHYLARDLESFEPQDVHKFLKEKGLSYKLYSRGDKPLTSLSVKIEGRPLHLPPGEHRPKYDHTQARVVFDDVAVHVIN

[10] = Toxicity in mouse B16-4A5 cells assessed as inhibition of cell proliferation in presence of 1 mM theophylline after 72 hrs by WST8 dye reduction assay; format: cell-based
[11] = molecular target: T1, Tyrosinase (Agaricus bisporus); experiment: Inhibition of mushroom tyrosinase at 1 uM
[12] = molecular target: T1, Tyrosinase (Agaricus bisporus); experiment: Inhibition of mushroom tyrosinase at 3 uM

Row | Structure (SMILES) | inhibition at 72 h, 30 µM [1] [%] | inhibition at 30 µM (cells [2]) [%] | inhibition at 10 µM (cells [3]) [%] | inhibition at 3 µM (cells [4]) [%] | inhibition at 1 µM (cells [5]) [%] | inhibition at 72 h, 1 µM [6] [%] | inhibition at 72 h, 3 µM [7] [%] | inhibition at 72 h, 10 µM [8] [%] | inhibition [9] | IC50 at 72 h [10] [µM] | inhibition [11] [%] | inhibition [12] [%]
1 | COc1cc([C@H]2Oc3c(O)cc([C@H]4Oc5cc(O)cc(O)c5C(=O)[C@@H]4O)cc3[C@@H]2CO)ccc1O [SILICRISTIN B] | < 8.8 | 1.2 | 1.6 | -1.3 | 4.2 | – | – | – | – | – | – | –
2 | O=c1c(O)c(-c2ccc(O)cc2)oc2cc(O)cc(O)c12 [KAEMPFEROL] | 16.3 | 58.1 | 18.6 | 7.9 | -0.6 | 3 | 10.2 | 13 | inactive | – | – | –
3 | O=C1C[C@@H](c2ccc(O)cc2)Oc2cc(O)cc(O)c21 [NARINGENIN] | < 8.8 | 16.9 | 22.5 | 13.9 | 14.4 | – | – | – | – | – | – | –
4 | COc1cc(C(C)=O)ccc1O [APOCYNIN] | < 8.8 | 20.2 | 18.9 | 17.5 | 16.8 | – | – | – | – | – | – | –
5 | COc1cc(C(O)C(CO)Oc2ccc(/C=C/C=O)cc2OC)ccc1O (centres undefined) | 91.5 | – | < 15.4 | – | – | 2.2 | 13.6 | 68.6 | – | 6.9 | – | –
6 | COc1cc([C@@H]2Oc3c(O)cc(C=O)cc3[C@H]2CO)ccc1O [HIEROCHIN C] | < 8.8 | 44.6 | 27.6 | 6.6 | -1 | – | – | – | – | – | – | –
7 | COc1cc([C@@H]2Oc3c(O)cc([C@H]4Oc5cc(O)cc(O)c5C(=O)[C@@H]4O)cc3[C@H]2CO)ccc1O [SILICRISTIN A] | < 8.8 | 17.4 | 3.8 | 1.3 | 4.1 | – | – | – | – | – | – | –
8 | COc1cc(C(=O)CO)ccc1O | < 8.8 | < 15.4 | – | – | – | – | – | – | – | – | – | –
9 | COc1cc(C(O)C(CO)Oc2ccc(/C=C/CO)cc2OC)ccc1O (centres undefined) | < 8.8 | 52.9 | 24.5 | 11.7 | 8.8 | – | – | – | inactive | – | – | –
10 | COc1cc([C@H]2Oc3c(OC)cc(/C=C/CO)cc3[C@@H]2CO)ccc1O | 23.3 | 72.7 | 18.6 | -5.4 | -1.6 | -2.7 | 0.3 | -1.6 | inactive | > 100 | – | –
11 | O=C1c2c(O)cc(O)cc2O[C@@H](c2ccc(O)c(O)c2)[C@H]1O [(+)-EPITAXIFOLIN] | < 8.8 | 13.7 | 6.9 | 6.8 | 3.5 | – | – | – | – | – | – | –
12 | COc1cc([C@H](O)[C@@H](CO)c2ccc(O)c(OC)c2)ccc1O (relative stereo) | < 8.8 | < 15.4 | – | – | – | – | – | – | – | – | – | –
13 | O=C1C[C@@H](c2ccc(O)cc2)Oc2c1c(O)cc1oc3cc(O)c(O)cc3c21 [ANASTATIN B] | < 8.8 | 40.3 | 19.5 | 10.1 | -1.1 | – | – | – | – | – | – | –
14 | O=C1C[C@@H](c2ccc(O)cc2)Oc2cc3oc4cc(O)c(O)cc4c3c(O)c21 [ANASTATIN A] | < 8.8 | 65.1 | 35.9 | 14.9 | 7.1 | – | – | – | inactive | – | 6.4 | 6.7
15 | COc1cc(/C=C/C(=O)O)ccc1O [FERULATE] | < 8.8 | < 15.4 | – | – | – | – | – | – | – | – | – | –
16 | O=C1c2c(O)cc(O)cc2O[C@H](c2ccc(O)cc2)[C@H]1O [DIHYDROKAEMPFEROL] | < 8.8 | 7 | -5.2 | 14.4 | 6 | – | – | – | – | – | – | –
17 | COc1cc(C[C@H]2CO[C@H](c3ccc(O)c(OC)c3)[C@H]2CO)ccc1O [LARICIRESINOL] | < 8.8 | < 15.4 | – | – | – | – | – | – | – | – | – | –
18 | O=C1c2c(O)cc(O)cc2O[C@H](c2ccc(O)c(O)c2)[C@H]1O [(+)-TAXIFOLIN] | < 8.8 | 21.7 | 6.7 | 3.1 | 3.5 | – | – | – | – | – | – | –

Row | Structure (SMILES) | inhibition at 72 h, 30 µM [1] [%] | inhibition at 30 µM (cells [2]) [%] | inhibition at 10 µM (cells [3]) [%] | inhibition at 3 µM (cells [4]) [%] | inhibition at 1 µM (cells [5]) [%] | inhibition at 72 h, 1 µM [6] [%] | inhibition at 72 h, 3 µM [7] [%] | inhibition at 72 h, 10 µM [8] [%] | inhibition [9] | IC50 at 72 h [10] [µM] | inhibition [11] [%] | inhibition [12] [%]
19 | O=Cc1ccc(O)cc1 [4-HYDROXYBENZALDEHYDE] | 17.6 | < 15.4 | – | – | – | -8.4 | -13.6 | -21 | – | – | – | –
20 | COc1cc(C(=O)[C@H](CO)c2ccc(O)c(OC)c2)ccc1O [(-)-EVOFOLIN B] | < 8.8 | 23.5 | 16.4 | 15 | 18.2 | – | – | – | – | – | – | –
21 | COC/C=C/c1cc(O)c2c(c1)[C@@H](CO)[C@H](c1ccc(O)c(OC)c1)O2 [HIEROCHIN A] | < 8.8 | 51.8 | 32.5 | 8 | 1.9 | – | – | – | inactive | – | – | –
22 | COc1ccc([C@@H]2Oc3c(O)cc(/C=C/C=O)cc3[C@H]2CO)cc1OC | < 8.8 | 76.8 | 33.6 | 8.4 | 10.7 | – | – | – | inactive | – | – | –
23 | COc1cc(C=O)ccc1O [VANILLIN] | < 8.8 | < 15.4 | – | – | – | – | – | – | – | – | – | –
24 | COc1cc(/C=C/C=O)ccc1O [CONIFERYL ALDEHYDE] | 11.5 | 39.1 | 14 | 11.6 | 10.3 | -4.2 | -3.2 | -0.5 | – | – | 1.6 | 4.2
25 | O=Cc1ccc(O)c(O)c1 [PROTOCATECHUALDEHYDE] | 11.4 | 57.9 | 40.4 | 13.8 | 8.5 | -4.7 | -4.7 | -3.7 | inactive | – | 3.1 | 2.3
26 | COc1cc([C@H]2Oc3c(OC)cc(/C=C/C=O)cc3[C@@H]2CO)ccc1O | 40.3 | 79.1 | 28.4 | 2.1 | -2.8 | 3.8 | 5.5 | 13.6 | inactive | > 100 | – | –
27 | COc1ccc([C@H]2Oc3c(OC)cc(/C=C/CO)cc3[C@@H]2CO)cc1OC [Hierochin B] | 23.8 | 50.6 | 7.6 | 2.2 | -1.6 | 0.3 | 1.3 | 10.9 | – | > 100 | – | –
28 | COc1cc(C(=O)CCO)ccc1O | < 8.8 | < 15.4 | – | – | – | – | – | – | – | – | – | –
29 | COc1cc([C@H]2Oc3cc(O)cc(O)c3C(=O)[C@@H]2O)ccc1O | < 8.8 | 16.2 | 10.6 | 8 | 9.8 | – | – | – | – | – | – | –
30 | COc1ccc(C(=O)O)cc1 [p-ANISIC ACID] | < 8.8 | < 15.4 | – | – | – | – | – | – | – | – | – | –
31 | C[C@@H]1O[C@@H](OC[C@H]2O[C@@H](Oc3c(-c4ccc(O)c(O)c4)oc4cc(O)cc(O)c4c3=O)[C@H](O)[C@@H](O)[C@@H]2O)[C@H](O)[C@H](O)[C@H]1O [RUTIN] | < 8.8 | 5.2 | 4.3 | 3.1 | 4.5 | – | – | – | – | – | – | –
32 | O=C(O)c1ccc(O)c(O)c1 [PROTOCATECHUIC ACID] | < 8.8 | < 15.4 | – | – | – | – | – | – | – | – | – | –
33 | O=C(O)c1ccc(O)cc1 [PARABEN] | < 8.8 | < 15.4 | – | – | – | – | – | – | – | – | – | –
34 | COc1cc([C@@H](O)[C@@H](CO)c2ccc(O)c(OC)c2)ccc1O (relative stereo) | < 8.8 | 27.3 | 21.3 | 20.8 | 14.9 | – | – | – | – | – | – | –
35 | COc1cc(C(=O)C(O)CO)ccc1O (single isomer, unassigned; (+)) | < 8.8 | 25.8 | 24 | 18.1 | 16.5 | – | – | – | – | – | – | –
